Measured values: publication PMC6615598, “Novel antibiotics effective against gram-positive and -negative multi-resistant bacteria with limited resistance” (PLoS Biology, 2019)
Like-named read-outs stand apart in the source and are kept apart here. Starred links: 1 amine or outer side, 2 acyl side, 3 side chain; linkers in the order of their positions; H or OH if unused. Non-standard residues stand in square brackets, D forms with d. Residues, ends and D or L forms follow the SMILES beside them. azaβ3(1Nal) = O=C(CN(Cc1cccc2ccccc12)N[*:1])[*:2]

What was measured:
S. aureus MRSA = assay: Time-kill assay at 30-fold MIC; format: cell-based; details: 4 h
Experimental: (§1) (10−4 M final concentrations). At selected time intervals, 100 μl of reaction mixture was collected, quenched by 200 μl 95% EtOH, and adjusted at pH 2 to prevent peptide adsorption to serum proteins. […] Supernatants were analyzed by RP-HPLC on an Xbridge C18 column with a linear gradient of water, 0.08% TFA, and acetonitrile with 1% TFA. HPLC peak areas were used to calculate the percentages of intact compound remaining at the various time points. MIC and MBC values were determined in triplicate in many ESKAPE clinical isolates, including a dozen MDR S. aureus, by the broth microdilution method. Peptidomimetics and antibiotics were assayed in a concentration range of 1 to 128 μM. The bacterial inoculum (5 × 10^5 colony-forming units [CFUs]/well) was prepared in MHB or CAMHB (150 μl). A Biotek Synergy 2 spectrophotometer was used to record the results after 18–20 h incubation at 35°C (±2°C). […] After every hour of culture for 4 h, serial dilutions were plated on BHI plates and incubated overnight at 37°C, and then the CFUs were counted and expressed as log CFU/ml. Phosphate-buffered saline (PBS)-exposed S. aureus MRSA was included as a control.

Escherichia coli 508 = system: Escherichia coli 508
Experimental: as §1

P. aeruginosa 15644 = system: P. aeruginosa 15644
Experimental: as §1

Escherichia coli ML35P = details: E. coli ML35P; broth microdilution; 3 independent experiments
Experimental: as §1

A. baumanii 7985 = system: A. baumanii 7985
Experimental: as §1

P. aeruginosa PA14 = details: PA14
Experimental: as §1

K. pneumoniae 13829 = details: 13829
Experimental: as §1

[1] = system: Enterobacter cloacae ATCC13047; details: ATCC13047
Experimental: as §1

E. faecium Aus0004 = system: E. faecium Aus0004
Experimental: as §1

Escherichia coli 444 = details: 444
Experimental: as §1

P. aeruginosa 15637 = details: 15637
Experimental: as §1

Escherichia coli PV = details: PV
Experimental: as §1

P. aeruginosa 15643 = system: P. aeruginosa 15643
Experimental: as §1

Escherichia coli 750 = system: Escherichia coli 750
Experimental: as §1

Escherichia coli MCR−1 = details: MCR−1
Experimental: as §1

Escherichia coli K12 = details: K12
Experimental: as §1

Escherichia coli 146 = details: 146
Experimental: as §1

Escherichia coli 758 = details: 758
Experimental: as §1

A. baumanii 11896 = system: A. baumanii 11896
Experimental: as §1

P. aeruginosa 15641 = details: 15641
Experimental: as §1

Escherichia coli 293 = details: 293
Experimental: as §1

Escherichia coli 066 = details: 066
Experimental: as §1

K. pneumoniae 13825 = system: K. pneumoniae 13825
Experimental: as §1

P. aeruginosa 15638 = system: P. aeruginosa 15638
Experimental: as §1

Escherichia coli 283 = details: 283
Experimental: as §1

Escherichia coli 13090 = system: Escherichia coli 13090
Experimental: as §1

[2] = Stability in human serum (half-life); format: in vitro ADME; details: 25% human serum, pre-incubated 15 min at 37°C, peptide 10^−4 M, RP-HPLC peak areas, mean of biological triplicates
Experimental: as §1
Supplementary file pbio.3000337.s013.docx: S7 Table Peptide half-lives in human and mouse sera. […] Peptide amounts and half-lives were determined by HPLC. Experiments were conducted on 25% human or mouse sera. Values are shown in minutes. The mean values correspond to biological triplicates. HPLC, high pressure liquid chromatography. (DOCX) Click here for additional data file.

S. aureus Newman = assay: microbe, parasite or virus in culture; details: Newman
Experimental: as §1

MRSA = assay: Mild sepsis mouse model, survival; format: in vivo; details: mice, approximately 5 × 10^8 MRSA IV; single IV 1.5 mg.kg^−1 at 3 h or 15 h post infection; 14 d
Description: Tolerance and toxicity studies were done on male Swiss mice (CD-1 Crl: CD-1 [ICR] IGS; Charles River). These were 7 to 10 weeks old and weighed an average of 37.2 g. All experimental protocols were approved by the Adaptive Therapeutics Animal Care and Use Committee (APAFiS #4508-2016031l15541258 v2). For the sepsis model, we used female Swiss mice (Janvier Labs), 6 to 8 weeks old and weighing approximately 30 g. Experiments were monitored in the ARCHE-BIOSIT animal lab in Rennes, in biological duplicate. We used Groups of 5 mice for the mild and the severe sepsis models with MRSA. Mice were IV inoculated with 150 μl of MRSA suspensions in 0.9% NaCl containing approximately 5 × 10^8 CFUs for the “mild” sepsis and approximately 2 × 10^9 CFUs for the “severe” sepsis, respectively. […] Mice survival was monitored for 4 d (“severe” sepsis) or 14 d (“mild” sepsis), and the statistical significance of difference(s) between the groups was evaluated using the Wilcoxon test. P < 0.05 was considered significant. Two weeks (“mild” sepsis) or 4 d (“severe” sepsis) after inoculation, mice were euthanized with CO2.

CC(C)[C@@H]1NC(=O)[C@H](CCCNC(=N)N)NC(=O)[C@H](CCCNC(=N)N)NC(=O)[C@H](Cc2c[nH]c3ccccc23)NC(=O)[C@H](Cc2ccccc2)NC(=O)[C@H](Cc2ccccc2)NC(=O)[C@H](CCCCN)NC1=O [Pep18] (cyclo(FFWRRVK))
Bactericidal activity in time-kill curves (S. aureus MRSA): higher bactericidal activities than vancomycin | MIC (Escherichia coli 508; E. coli 508, clinical strain, Rennes urinary catheter, broth microdilution, 3 independent experiments): 64 (65.6) μM | MIC (P. aeruginosa 15644; P. aeruginosa 15644, clinical strain, Caen hemoculture, broth microdilution, 3 independent experiments): 64 (65.6) μM | MIC (Escherichia coli ML35P): 16 (16.4) μM | MIC (A. baumanii 7985): >128 µM | MIC (P. aeruginosa PA14): 8 (8.2) μM | MIC (K. pneumoniae 13829): >128 µM | MIC [1]: 128 (131.2) μM | MIC (E. faecium Aus0004; E. faecium Aus0004, broth microdilution, 3 independent experiments): 64 (65.6) μM | MIC (Escherichia coli 444): 32 (32.8) μM | MIC (P. aeruginosa 15637): 8 (8.2) μM | MIC (Escherichia coli PV): 32 (32.8) μM | MIC (P. aeruginosa 15643; P. aeruginosa 15643, clinical strain, Caen hemoculture, broth microdilution, 3 independent experiments): 16 (16.4) μM | MIC (Escherichia coli 750; E. coli 750, clinical strain, Rennes urinary catheter, broth microdilution, 3 independent experiments): 16 (16.4) μM | MIC (Escherichia coli MCR−1): 32 (32.8) μM | MIC (Escherichia coli K12): 16 (16.4) μM | MIC (Escherichia coli 146): 32 (32.8) μM | MIC (Escherichia coli 758): 32 (32.8) μM | MIC (A. baumanii 11896): >128 µM | MIC (P. aeruginosa 15641): 32 (32.8) μM | MIC (Escherichia coli 293): 32 (32.8) μM | MIC (Escherichia coli 066): 32 (32.8) μM | MIC (K. pneumoniae 13825; K. pneumoniae 13825, clinical strain, Caen hemoculture, broth microdilution, 3 independent experiments): 16 (16.4) μM | MIC (P. aeruginosa 15638; P. aeruginosa 15638, clinical strain, Caen hemoculture, broth microdilution, 3 independent experiments): 64 (65.6) μM | MIC (Escherichia coli 283): 32 (32.8) μM | MIC (Escherichia coli 13090; E. coli 13090, clinical strain, Caen hemoculture, broth microdilution, 3 independent experiments): 16 (16.4) μM | half-life [2]: 16.3 ± 1.67 h | MIC (S. aureus Newman): 16 (16.4) μM | Survival in mild sepsis (MRSA): no effect

CC(C)[C@@H]1NC(=O)[C@H](CCCNC(=N)N)NC(=O)[C@H](CCCNC(=N)N)NC(=O)CN(Cc2cccc3ccccc23)NC(=O)[C@H](Cc2ccccc2)NC(=O)CN(Cc2cccc3ccccc23)NC(=O)[C@H](CCCCN)NC1=O [Pep19] (cyclo([azaβ3(1Nal)]F[azaβ3(1Nal)]RRVK))
Bactericidal activity in time-kill curves (S. aureus MRSA): higher bactericidal activities than vancomycin | MIC (Escherichia coli 508; 508): 8 (9) μM | MIC (P. aeruginosa 15644; 15644): 16 (18) μM | MIC (Escherichia coli ML35P): 4 (4.5) μM | MIC (A. baumanii 7985): 8 (9) μM | MIC (P. aeruginosa PA14): 8 (9) μM | MIC (K. pneumoniae 13829): >128 µM | MIC [1]: 16 (18) μM | MIC (E. faecium Aus0004; Aus0004): 8 (9) μM | MIC (Escherichia coli 444): 8 (9) μM | MIC (P. aeruginosa 15637): 8 (9) μM | MIC (Escherichia coli PV): 8 (9) μM | MIC (P. aeruginosa 15643; 15643): 8 (9) μM | MIC (Escherichia coli 750; 750): 8 (9) μM | MIC (Escherichia coli MCR−1): 16 (18) μM | MIC (Escherichia coli K12): 4 (4.5) μM | MIC (Escherichia coli 146): 8 (9) μM | MIC (Escherichia coli 758): 8 (9) μM | MIC (A. baumanii 11896): 8 (9) μM | MIC (P. aeruginosa 15641): 16 (18) μM | MIC (Escherichia coli 293): 16 (18) μM | MIC (Escherichia coli 066): 8 (9) μM | MIC (K. pneumoniae 13825; 13825): 8 (9) μM | MIC (P. aeruginosa 15638; 15638): 16 (18) μM | MIC (Escherichia coli 283): 8 (9) μM | MIC (Escherichia coli 13090; 13090): 4 (4.5) μM | half-life [2]: 24.2 ± 4.33 h | MIC (S. aureus Newman): 4 (4.5) μM | Survival in mild sepsis (MRSA): survived better than those without treatment
